Series [1] has as its system engorged adult female cattle ticks (Boophilus microplus). Kind of series: Boophilus microplus injection test (BOOPMI inj). In kind it is in vivo. To be noted: assessed after 7 days. Here is the method: Boophilus microplus Injection Test (BOOPMI inj) Solvent: dimethyl sulphoxide To produce a suitable active compound formulation, 10 mg of active compound are mixed with 0.5 ml of solvent and the concentrate is diluted with solvent to the desired concentration. 1 μl of the active compound solution is injected into the abdomen of 5 engorged adult female cattle ticks (Boophilus microplus). The animals are transferred into dishes and kept in a climate-controlled room. The efficacy is assessed after 7 days by laying of fertile eggs. Eggs which are not visibly fertile are stored in a climate-controlled cabinet until the larvae hatch after about 42 days. An efficacy of 100% means that none of the ticks has laid any fertile eggs; 0% means that all the eggs are fertile.

Series [2] deals with adult cat fleas (Ctenocephalides felis). Kind of series: Ctenocephalides felis oral test (CTECFE). It counts as in vivo. To be noted: 100 ppm, oral in cattle blood, after 2 days. How it is done:
Ctenocephalides felis-Oral Test ([…]) Solvent: dimethyl sulphoxide To produce a suitable active compound formulation, 10 mg of active compound are mixed with 0.5 ml of dimethyl sulphoxide. Dilution with citrated cattle blood gives the desired concentration. About 20 unfed adult cat fleas (Ctenocephalides felis) are placed into a chamber which is closed at the top and bottom with gauze. A metal cylinder whose bottom end is closed with parafilm is placed onto the chamber. The cylinder contains the blood/active compound preparation, which can be imbibed by the fleas through the parafilm membrane. After 2 days, the kill in % is determined 100% means that all of the fleas have been killed; 0% means that none of the fleas have been killed.

For series [3], the system named is L1 larvae of the Australian sheep blowfly (Lucilia cuprina). Nature of the series: Lucilia cuprina test (LUCICU). It counts as in vivo. To be noted: 100 ppm, after 2 days. Here is the method: Lucilia cuprina Test (LUCICU) Solvent: dimethyl sulphoxide To produce a suitable active compound formulation, 10 mg of active compound are mixed with 0.5 ml of dimethyl sulphoxide, and the concentrate is diluted with water to the desired concentration. About 20 L1 larvae of the Australian sheep blowfly (Lucilia cuprina) are transferred into a test vessel containing minced horsemeat and the active compound preparation of the desired concentration. After 2 days, the kill in % is determined 100% means that all the larvae have been killed; 0% means that none of the larvae have been killed.

Series [4] relates to adult houseflies (Musca domestica). Nature of the series: Musca domestica test (MUSCDO). In kind it is in vivo. To be noted: 100 ppm, after 2 days. How it is done: Musca domestica Test (MUSCDO) Solvent: dimethyl sulphoxide To produce a suitable active compound formulation, 10 mg of active compound are mixed with 0.5 ml of dimethyl sulphoxide, and the concentrate is diluted with water to the desired concentration. Vessels containing a sponge treated with sugar solution and the active compound preparation of the desired concentration are populated with 10 adult houseflies (Musca domestica). After 2 days, the kill in % is determined. 100% means that all of the flies have been killed; 0% means that none of the flies have been killed.

Series [5] has as its system larvae of the mustard beetle (Phaedon cochleariae). Nature of the series: Phaedon cochleariae spray test (PHAECO). In kind it is in vivo. Conditions: 100 g/ha, after 7 days. How it is done: Phaedon cochleariae—Spray Test (PHAECO)
(§1) Solvent: 78.0 parts by weight of acetone • • 1.5 parts by weight of dimethylformamide
(§2) Emulsifier: alkylaryl polyglycol ether
(§3) To produce a suitable active compound formulation, 1 part by weight of active compound is dissolved using the specified parts by weight of solvent and made up with water containing an emulsifier concentration of 1000 ppm until the desired concentration is attained. To produce further test concentrations, the preparation is diluted with emulsifier-containing water.
After 7 days, the efficacy in % is determined. 100% means that all the beetle larvae have been killed; 0% means that no beetle larvae have been killed.

Series [6] concerns caterpillars of the armyworm (Spodoptera frugiperda). Nature of the series: Spodoptera frugiperda spray test (SPODFR). Conditions: for efficacy: 100 g/ha, spray, after 7 days. It counts as in vivo. Here is the method: Spodoptera frugiperda—Spray Test (SPODFR) Solvent: 78.0 parts by weight of acetone • • 1.5 parts by weight of dimethylformamide Emulsifier: alkylaryl polyglycol ether To produce a suitable active compound formulation, 1 part by weight of active compound is dissolved using the specified parts by weight of solvent and made up with water containing an emulsifier concentration of 1000 ppm until the desired concentration is attained. To produce further test concentrations, the preparation is diluted with emulsifier-containing water. Leaf discs of maize (Zea mays) are sprayed with an active compound formulation of the desired concentration and, after drying, populated with caterpillars of the armyworm (Spodoptera frugiperda). After 7 days, the efficacy in % is determined 100% means that all the caterpillars have been killed; 0% means that no caterpillars have been killed. Spodoptera frugiperda—Spray Test (SPODFR) Solvent: 78.0 parts by weight of acetone • • 1.5 parts by weight of dimethylformamide Emulsifier: alkylaryl polyglycol ether To produce a suitable active compound formulation, 1 part by weight of active compound is dissolved using the specified parts by weight of solvent and made up with water containing an emulsifier concentration of 1000 ppm until the desired concentration is attained. To produce further test concentrations, the preparation is diluted with emulsifier-containing water. Leaf discs of maize (Zea mays) are sprayed with an active compound formulation of the desired concentration and, after drying, populated with caterpillars of the armyworm (Spodoptera frugiperda). After the desired period of time, the efficacy in % is determined. 100% means that all the caterpillars have been killed; 0% means that no caterpillars have been killed.

For series [7], the system named is greenhouse red spider mite (Tetranychus urticae). Kind of series: Tetranychus urticae spray test, OP-resistant (TETRUR). In kind it is in vivo. Conditions: 100 g/ha, spray, after 6 days. Here is the method:
Tetranychus urticae—Spray Test, OP-Resistant (TETRUR)
as §1, §2, §3
Discs of bean leaves (Phaseolus vulgaris) infested by all stages of the greenhouse red spider mite (Tetranychus urticae) are sprayed with an active compound formulation of the desired concentration.
After 6 days, the efficacy in % is determined 100% means that all the spider mites have been killed; 0% means that none of the spider mites have been killed.
Tetranychus urticae—Spray Test; OP-Resistant (TETRUR)
After the desired period of time, the efficacy in % is determined 100% means that all the spider mites have been killed; 0% means that none of the spider mites have been killed.

Series [8] in a line: log P by HPLC (EEC directive 79/831 Annex V.A8). It counts as physicochemical. To be noted: 43° C., acidic range pH 2.7; for log P: HPLC, reversed-phase column (C18). How it is done: a) The determination of the M^+ by LC-MS in the acidic range is effected at pH 2.7, acetonitrile (contains 0.1% formic acid) and water as eluents; linear gradient from 10% acetonitrile to 95% acetonitrile, instrument: Agilent 1100 LC system, Agilent MSD system, HTS PAL. The log P values reported in the tables and Preparation Examples above were determined in accordance with EEC directive 79/831 Annex V.A8 by HPLC (High Performance Liquid Chromatography) using a reversed-phase column (C18). Temperature 43° C. The calibration is effected with unbranched alkan-2-ones (having 3 to 16 carbon atoms), for which the logP values are known.

Consider `CCn1c(C(=O)NC(c2cc(Cl)c(F)c(Cl)c2F)C(F)(F)F)cc2cc(C(=O)NC3(C(N)=S)CC3)c(Cl)cc21` (stereo not shown) [I-01, N5-(1-Carbamothioylcyclopropyl)-6-chloro-N2-[1-(3,5-dichloro-2,4-difluorophenyl)-2,2,2-trifluoroethyl]-1-ethylindole-2,5-dicarboxamide], for which, in series [1], the “efficacy (laying of fertile eggs)” value is on record as 100%. Besides, the “efficacy (kill in %)” value in series [2], in series [3] and in series [4] was 100% each time. Also, the efficacy in series [5], in series [6] and in series [7] was 100% throughout. In series [6] (Spodoptera frugiperda, 168 h, SPODFR, 0.8 g/ha, 7 dat), this compound had a % efficacy (mortality) at a single application rate at 0.8 g/ha of 100%. The same compound returned a % efficacy (mortality) at a single application rate at 4 g/ha in series [6] (Spodoptera frugiperda, 168 h, SPODFR, 4 g/ha, 7 dat) of 100%. For the same compound, in series [8] (reversed-phase C18 HPLC column, pH 2.7, HPLC), the chromatographic logP turned out to be 4.25.

As to `CCn1c(C(=O)NC(c2cc(Cl)c(F)c(Cl)c2F)C(F)(F)F)cc2cc(C(=O)NC3(C(N)=S)CC3)c(Cl)cc21` (single isomer, unassigned) [I-18], in series [1], the “efficacy (laying of fertile eggs)” value came out at 100%. In addition, the “efficacy (kill in %)” value in series [2], in series [3] and in series [4] was 100% in each case. For the same compound, the efficacy in series [5], in series [6] and in series [7] was 100% each time. Besides, the “% efficacy” value came to 100% in series [6] (SPODFR, 0.8 g/ha, 7 dat) and 100% in series [6] (SPODFR, 4 g/ha, 7 dat). In addition, the lipophilicity (log P) in series [8] was 4.27;.

For the compound `CCn1c(C(=O)NC(c2cc(Cl)c(F)c(F)c2F)C(F)(F)F)cc2cc(C(=O)NC3(C(N)=S)CC3)c(Cl)cc21` (stereo not shown) [I-26], the “efficacy (laying of fertile eggs)” value in series [1] stood at 100%. The “efficacy (kill in %)” value in series [2], in series [3] and in series [4] was 100% in each case. Also, the efficacy in series [5], in series [6] and in series [7] was 100% in each case. In addition, in series [8], the “log P” value is listed as 3.99.

Turning to `CCn1c(C(=O)NC(c2cc(F)c(Cl)c(Cl)c2F)C(F)(F)F)cc2cc(C(=O)NC3(C(N)=S)CC3)c(Cl)cc21` (stereo not shown) [I-27], in series [1], the “efficacy (laying of fertile eggs)” value is given as 100%. Besides, the “efficacy (kill in %)” value in series [2], in series [3] and in series [4] was 100% each time. In addition, the efficacy in series [5], in series [6] and in series [7] was 100% each time. Besides, in series [8], the lipophilicity (log P) worked out at 4.28.

Regarding `CCn1c(C(=O)NC(c2cc(Cl)c(Cl)c(Cl)c2)C(F)(F)F)cc2cc(C(=O)NC3(C(N)=S)CC3)c(Cl)cc21` (stereo not shown) [I-05], in series [1], the “efficacy (laying of fertile eggs)” value was found to be 100%. Further, the “efficacy (kill in %)” value in series [2], in series [3] and in series [4] was 100% each time. Moreover, the results for the efficacy in series [5], in series [6] and in series [7] were 100%, 100% and 90%, respectively. For the same compound, in series [8], the lipophilicity (log P) amounted to 4.33.

Turning to `CCn1c(C(=O)NC(c2ccc(F)c(Cl)c2)C(F)(F)F)cc2cc(C(=O)NC3(C(N)=S)CC3)c(Cl)cc21` (stereo not shown) [I-04], the “efficacy (laying of fertile eggs)” value in series [1] is 100%. Moreover, the “efficacy (kill in %)” value in series [2], in series [3] and in series [4] was 100% in each case. Besides, the efficacy in series [5], in series [6] and in series [7] was 100% throughout. Also, the “% efficacy” value in series [6] (SPODFR, 0.8 g/ha, 7 dat) turned out to be 100%; in series [6] (SPODFR, 4 g/ha, 7 dat), 100%. Besides, the “log P” value in series [8] is on record as 3.57.

Regarding `CCn1c(C(=O)NC(c2cc(Cl)c(F)c(Cl)c2F)C(F)(F)F)cc2cc(C(=O)NC3(C(N)=S)CC3)c(Cl)cc21` (single isomer, unassigned) [I-17], in series [1], the “efficacy (laying of fertile eggs)” value worked out at 100%. Besides, the “efficacy (kill in %)” value was 100% in series [2], 90% in series [3] and 80% in series [4]. Further, the efficacy in series [5], in series [6] and in series [7] was 100% in each case. The “log P” value in series [8] was 4.27;.

As to `CCn1c(C(=O)NC(c2cc(Cl)cc(Cl)c2)C(F)F)cc2cc(C(=O)NC3(C(N)=S)CC3)c(Cl)cc21` (stereo not shown) [I-24], the “efficacy (laying of fertile eggs)” value in series [1] is on record as 100%. Also, the “efficacy (kill in %)” value in series [2] is listed as 100%; in series [3], 100%; in series [4], 80%. Moreover, the efficacy in series [5], in series [6] and in series [7] was 100% in each case. Further, the lipophilicity (log P) in series [8] is 3.65.

As to `CCn1c(C(=O)NC(c2cc(F)cc(C(F)(F)F)c2)C(F)(F)F)cc2cc(C(=O)NC3(C(N)=S)CC3)c(Cl)cc21` (stereo not shown) [I-10], in series [1], the “efficacy (laying of fertile eggs)” value amounted to 100%. Besides, the “efficacy (kill in %)” value in series [2], in series [3] and in series [4] was 100% throughout. The efficacy in series [5], in series [6] and in series [7] was 100% in each case. Moreover, the “% efficacy” value in series [6] (SPODFR, 0.8 g/ha, 7 dat) came out at 100%; in series [6] (SPODFR, 4 g/ha, 7 dat) it was 100%. The lipophilicity (log P) in series [8] was determined as 3.81.

For `CCn1c(C(=O)NC(c2ccc(Cl)c(C(F)(F)F)c2)C(F)(F)F)cc2cc(C(=O)NC3(C(N)=S)CC3)c(C)cc21` (stereo not shown) [I-13], the “efficacy (laying of fertile eggs)” value in series [1] is listed as 100%. Moreover, the “efficacy (kill in %)” value in series [2], in series [3] and in series [4] was 100% throughout. The efficacy in series [5], in series [6] and in series [7] was 100% throughout. The “log P” value in series [8] was found to be 3.89.

These data come from patent publication US9802895B2, “Indole and benzimidazolecarboxamides as insecticides and acaricides” (BAYER CROPSCIENCE AKTIENGESELLSCHAFT, priority 2014, dated 2017).
